Several values for one entry are separate records, joined by “and”; a condition that tells them apart may be missing. Equal entries are not always repeated. Entries after “also recorded” stand apart in the source; their conditions may differ. Where two headings read alike, the source gives them in different places.
Assays:
[1] = test system: Cryptosporidium parvum sporozoites; test: Cryptosporidium parvum in vitro growth assay in MDBK cells; format: cell-based
Protocol: C. parvum oocysts obtained from infected neonatal calves (Institut National de la Recherche Agronomique-INRA, Nouzilly, France) were purified as previously described and stored in PBS at 4°C. Madin Darby bovine kidney cell line (MDBK; ECACC # 88081201, Sophia Antipolis, France) was cultured at 37°C in a 5% CO2 moist atmosphere in growth medium: RPMI 1640 (Sigma, L’Isle d’Abeau, France) supplemented with 25 mM HEPES (Sigma H-3375), 200 U/ml of penicillin, 200 μg/ml of streptomycin (Sigma P-0781) and 10% fetal calf serum (FCS; Dutscher, Brumath, France).
Prior to infection, MDBK cells were trypsinized and seeded in just one well of a 24-well plate in 2 ml of RPMI 1640 with 1% FCS. Aseptic oocysts were prepared for excystation by incubation in RPMI-1640, pH 2 (for 30 min at 37°C). Then, oocytes were washed in RPMI 1640 with 1% FCS and allowed to interact with MDBK cells for 1.5 h at 37°C in a 5% CO2 atmosphere. After 3 washes by centrifugation at 160 g in RPMI 1640 to remove non-excysted oocysts and shells, infected cells were plated in 24-well plates containing glass coverslips, in 500 μl/well of RPMI/1%FCS, and allowed to settle for 24 h. The infected cells were subsequently washed 3 times with RPMI 1640 and allowed to grow for a further 5 h (in 500 μl/well of RPMI/1% FCS). 500 μl of medium containing twice-concentrated Cipro derivatives were then added in triplicates in an equal volume of growth medium and left for another 24 h. Cells were fixed in 100% methanol and stained with 20% Giemsa and 1% Alcian blue as previously described, and the effects against sporozoite proliferation were evaluated by examining at least 1000 cells/coverslip in a light microscope, using an oil immersion X100 objective.

T. gondii tachyzoites [2] = test: Parasites per vacuole in LLC-MK2 cells after 6 h treatment (light microscopy); format: cell-based, Toxoplasma gondii
Protocol: For the treatment of T. gondii tachyzoites with Cipro derivatives in vitro, 5x10^5 LLC-MK2 cells (ATCC CCL7, Rockville, MD/EUA) in RPMI medium were plated on coverslips inside 24-well tissue culture plates, and allowed to settle at 37°C (5% CO2) for ~24h. Then, cells were infected with parasites (freshly-harvested from infected mice) at a 10:1 ratio of parasites to host cells. […] Then, coverslips were fixed with Bouin and stained with panoptic (solutions 2 and 3 of the ‘Panotico rápido’ kit, from Laborclin Ltda., Paraná, Brazil). Alternatively, cultures were washed three times with 0.5 ml of medium (to remove test compounds) and incubated for an additional 18 h in medium without drugs, before fixing and staining. The number of parasites per vacuole was scored by direct light microscopy examination. Three independent experiments were performed for each treatment condition, and the results were analyzed by two-way ANOVA (using GraphPad Prism 5.0).

T. gondii tachyzoites [3] = test: Immunofluorescence microscopy of treated tachyzoites in LLC-MK2 cells (cell division arrest, basal IMC gap); format: cell-based, Toxoplasma gondii; settings: for Basal IMC length mean: untreated control 0.65 ± 0.11 μm; for Effect on parasite division, anti-IMC1 labeling: 1 and 5 μM Et-Cipro and Adam-Cipro, 10 μM Ph-Cipro
Protocol: For Cipro assay, cells were infected in a ratio of 5:1 parasites per host cell and treated for 24, 48 and 72h. After treatment, infected cells were fixed in 3.7% freshly-prepared formaldehyde, permeabilized with 0.5% Triton X-100 for 15 min, and blocked with 3% bovine serum albumin (BSA) in PBS at pH 7.4 and room temperature for 1 h. All antibody incubations were performed in 3% BSA in PBS, for 1h, at room temperature. The following primary antibodies were used: anti-SAG1 (kindly provided by Dr. John Boothroyd, Stanford University School of Medicine, USA), at a dilution of 1:1000; anti-HSP60 and anti-Morn1 (kindly provided by Dr. Boris Striepen, University of Georgia, USA), diluted to 1:2000 and 1:100, respectively; and anti-IMC1 (kindly provided by Dr. Gary Ward, University of Vermont, USA), diluted to 1:1000. The secondary antibodies used here were anti-mouse/rabbit coupled to Alexa 488 or 546 (Molecular Probes). Sytox green (Molecular Probes) and DAPI (Sigma-Aldrich) were used to label the DNA. After labeling, the coverslips were mounted onto slides using Prolong gold (Life Technologies), and samples were examined on a TCSSP5 Leica or Zeiss LSM710 laser scanning confocal microscopes.

T. gondii [4] = test: Plaque assay in human foreskin fibroblasts, 10 days treatment; format: cell-based, Toxoplasma gondii; settings: HFF
Protocol: For plaque assay, 6-well tissue culture plates were seeded with human foreskin fibroblasts (HFF; ATCC). HFF was grown in high glucose Dulbeco’s Modified Eagle Medium supplemented with 10% FBS, 2mM L-glutamine, 100 U/ml penicillin, and 100 μg/ml streptomycin and maintained at 37°C with 5% CO2. After cultures reached confluence each well was infected with 10^4 of T. gondii. Infected cultures were treated for 10 days with Cipro derivatives, Cipro or left untreated.

[5] = for Serum levels of creatinine kinase (in words): single oral dose, 48 h; for Mouse weight (g) After 48 h / Mouse weight (g) Initial: uninfected Swiss mice; for Mouse weight (g) Initial: before dosing; for Serum urea: reference 18–29 mg/dL; for Serum creatinine kinase: reference ≤ 1070 U/L
Protocol: Acute toxicity analysis was performed using non-infected female Swiss mice (19–21 g).

[6] = test system: T. gondii tachyzoites (RH strain); test: Survival of mice acutely infected with T. gondii, 7-day oral treatment; format: in vivo, Toxoplasma gondii; settings: 7 days, from 24 h post-infection
Protocol: In this study, we used tachyzoite forms the RH strain of Toxoplasma gondii, obtained from the peritoneal cavity of mice 2 days after infection. […] Drinking water and food were given ad libitum.
To determine compound efficacy against T. gondii in vivo, female Swiss mice were infected intraperitoneally (i.p.) with 5x10^3 T. gondii tachyzoites and treated with test compounds from 24 h post-infection. […] Mice were treated once daily for 7 days, by oral gavage, and mouse mortality was monitored once a day for a period of 60 days. During survival studies, mice were not inflicted to any suffering condition and mice presenting morbidity symptoms (shivering, ruffled hair and immobility) were euthanized by CO2 asphyxiation to minimize animal suffering, and then mortality was scored. Survival curves were calculated using the Kaplan and Meier method, and compared using the log-rank (Mantel-Cox) test, in GraphPad Prism 5.0 (GraphPad Software Inc.) and P<0.05 was considered statistically significant.

T. gondii tachyzoites [7] = settings: read-out: IC50 against T. gondii in vitro; after 48 h of treatment; cited from earlier work
T. gondii [8] = test system: T. gondii; design: method as in PMID 8843293, PMID 11120943; settings: read-out: IC50 against T. gondii, cited from earlier work

Compound | Parasite proliferation in plaque assay (T. gondii [4]; 10 μM) | Mouse weight (g) After 48 h ([5]; single oral dose 25 mg/kg) [g] | Mouse weight (g) Initial ([5]; single oral dose 25 mg/kg) [g] | Serum urea ([5]; single oral dose 25 mg/kg) [mg/dL] | Mouse weight (g) After 48 h ([5]; single oral dose 50 mg/kg) [g] | Mouse weight (g) Initial ([5]; single oral dose 50 mg/kg) [g] | Serum urea ([5]; single oral dose 50 mg/kg) [mg/dL] | Serum creatinine kinase ([5]; single oral dose 50 mg/kg) [U/L] | Mouse weight (g) After 48 h ([5]; single oral dose 100 mg/kg) [g] | Mouse weight (g) Initial ([5]; single oral dose 100 mg/kg) [g] | Serum urea ([5]; single oral dose 100 mg/kg) [mg/dL] | Mouse weight (g) After 48 h ([5]; single oral dose 200 mg/kg) [g] | Mouse weight (g) Initial ([5]; single oral dose 200 mg/kg) [g] | Serum urea ([5]; single oral dose 200 mg/kg) [mg/dL] | Serum creatinine kinase ([5]; single oral dose 200 mg/kg) [U/L] | % inhibition of sporozoites growth ([1]; 12.5 μM, 24 h, MDBK cells) [%] | % inhibition of sporozoites growth ([1]; 25 μM, 24 h, MDBK cells) [%] | Effect on parasite division, anti-IMC1 labeling (T. gondii tachyzoites [3]; 24 h) | IC50 (T. gondii tachyzoites [7]) [µM] | other results
O=C(O)c1cn(C2CC2)c2cc(N3CCNCC3)c(F)cc2c1=O [Cipro, ciprofloxacin] | significant decrease in parasite proliferation; also recorded: drastic reduction on parasite proliferation | – | – | – | – | – | – | – | – | – | – | – | – | – | – | – | – | – | – | IC50 ([1]; Cryptosporidium parvum, MDBK, after 24h, estimated, read-out: IC50 against C. parvum): 39.2 µM; inhibition at 12.5 µM ([1]; Cryptosporidium parvum, 12.5 μM, 24 h, MDBK cells): 19.5 ± 1.1%; inhibition at 25 µM ([1]; Cryptosporidium parvum, 25 μM, 24 h, MDBK cells): 46.1 ± 2.9%; inhibition at 50 µM ([1]; Cryptosporidium parvum, 50 μM, 24 h, MDBK cells): 53.4 ± 2.51%; Vacuoles containing just one parasite (T. gondii tachyzoites [2]; 20 μM, 6 h treatment (7 h total infection), LLC-MK2): 54%; Parasitophorous vacuoles having just one parasite (T. gondii tachyzoites [2]; 50 μM, 6 h treatment (7 h total infection), LLC-MK2): 68%; Alteration of tachyzoites (in words) (T. gondii tachyzoites [3]; 20 μM, 24 h): not induced any significant alteration; Parasitophorous vacuoles containing parasites presenting cell division arrest (T. gondii tachyzoites [3]; 20 μM, 48 h): 24%; Parasitophorous vacuoles containing parasites presenting cell division arrest (T. gondii tachyzoites [3]; 20 μM, 72 h): 26%; Parasite proliferation in plaque assay (T. gondii [4]; 20 / 20 μM): No growth; also recorded: no plaques were observed
CCOC(=O)c1cn(C2CC2)c2cc(N3CCNCC3)c(F)cc2c1=O [Et-Cipro] | – | 22.25 | 19.87 | 55.8 | 20.92 | 19.15 | 51.2 | 182 | 22.27 | 20.71 | 55.1 | 22.17 | 20.0 | 49.3 | 583 | 20.3 ± 10.1 | 32.6 ± 7.6 | parasite cell division arrest | 0.42 | Serum levels of creatinine kinase (in words) ([5]; higher doses): normal; Serum creatinine kinase ([5]; single oral dose 25 mg/kg): 1727 U/L; Serum creatinine kinase ([5]; single oral dose 100 mg/kg): 578 U/L; % inhibition of sporozoites growth ([1]; 50 μM, 24 h, MDBK cells): 36% and 36.43 ± 9.76%; Vacuoles containing just one parasite (T. gondii tachyzoites [2]; 2 μM, 6 h treatment (7 h total infection), LLC-MK2): 57%; Concentration required to affect parasite division significantly (T. gondii tachyzoites [2]; 6 h treatment): > 2 µM; Increase in activity (cell division inhibition) compared with the original compound Cipro (T. gondii tachyzoites [2]; 6 h treatment, concentrations with similar effect compared): 10 fold; Basal IMC length mean (T. gondii tachyzoites [3]; 1 μM, 24 h): 0.76 ± 0.20 μm; Parasite morphology, anti-SAG1 / Sytox green labeling (T. gondii tachyzoites [3]; 5 μM, 24 h): formation of large multinucleated parasites; Basal IMC length mean (T. gondii tachyzoites [3]; 5 μM, 24 h): 0.80 ± 0.26 μm; Survival of T. gondii-infected mice, alive 60 days post-infection ([6]; 50 mg/kg/day oral): 18%; Parasite proliferation in plaque assay (T. gondii [4]; 5 μM): No growth; also recorded: no plaques were observed
CCOC(=O)c1cn(C2CC2)c2cc(N3CCN(Cc4ccccc4)CC3)c(F)cc2c1=O [Ph-Cipro] | No growth; also recorded: no plaques were observed | 23.85 | 21.21 | 49.2 | 22.72 | 19.30 | 50.6 | 506 | 21.94 | 19.21 | 52.8 | 22.20 | 19.93 | 46.2 | 1541 | 33.6 ± 11.6 | 42.6 ± 14.6 | parasite cell division arrest | 1.24 | Serum levels of creatinine kinase (in words) ([5]; 200 mg/kg): slightly altered; Toxicity to mice (in words) ([5]; high doses (200mg/kg)): mild toxicity; Basal IMC length mean (T. gondii tachyzoites [3]; 10 μM, 24 h): 0.73 ± 0.24 μm; Survival of T. gondii-infected mice, alive 60 days post-infection ([6]; 100 mg/kg/day oral): 13%; Survival of T. gondii-infected mice, alive 60 days post-infection ([6]; 150 mg/kg/day oral): 18%
COc1c(N2CCNC(C)C2)c(F)cc2c(=O)c(C(=O)O)cn(C3CC3)c12 (stereo not shown) [gatifloxacin] | – | – | – | – | – | – | – | – | – | – | – | – | – | – | – | – | – | – | – | IC50 (T. gondii [8]; HFF primary cell culture after 48h): 0.52 µM
N[C@@H]1[C@H]2CN(c3nc4c(cc3F)c(=O)c(C(=O)O)cn4-c3ccc(F)cc3F)C[C@@H]12 [trovafloxacin] | – | – | – | – | – | – | – | – | – | – | – | – | – | – | – | – | – | – | – | IC50 (T. gondii [8]; L929 cell line): 1.37 µM

Source: publication PMC4423777, “Ciprofloxacin Derivatives Affect Parasite Cell Division and Increase the Survival of Mice Infected with Toxoplasma gondii” (PLoS ONE, 2015)
